{"source": "patent US20260201336A1", "about": "“REPROGRAMMED SMOOTH MUSCLE CELLS AND METHODS RELATED THERETO” (EMORY UNIVERSITY, priority 2022, published 2026)", "system": "human dermal fibroblasts (HDFs)", "test": "qRT-PCR of HDFs treated with ATRA for four days", "type": "cell-based", "procedure": "Cell culture and maintenance. Human dermal fibroblasts (HDFs) were isolated from the dermis of human juvenile foreskin and expanded in Dulbecco's Modified Eagle's medium (DMEM) (Lonza, Basel, SWI) supplemented with 10% fetal bovine serum (FBS) (Sigma-Aldrich, St. Louis, MO), 1× Antibiotic-Antimycotic (Anti-Anti) (Gibco, Waltham, MA), 1× MEM Non-Essential Amino Acids (MEM NEAA) (Gibco, Waltham, MA), and 1× GlutaMAX Supplement (GlutaMAX) (Gibco, Waltham, MA) at 37° C. with 5% CO2. The Platinum-A (Plat-A) retroviral packaging cell line (Cell Biolabs, San Diego, CA) was maintained in the same medium without Anti-Anti and used for transfection at passages four to seven. HDFs and directly reprogrammed smooth muscle cells (rSMCs) were maintained in DMEM with low glucose (HyClone, Logan, UT) supplemented with 5% FBS, Anti-Anti, MEM NEAA, and GlutaMAX.\nGeneration of directly reprogrammed SMCs. For direct reprogramming of HDFs into contractile SMCs, HDFs were seeded at a density of 1.5×10^5 cells per ml in DMEM (Lonza) supplemented with 10% FBS (Sigma-Aldrich), Anti-Anti (Gibco), MEM NEAA (Gibco), and GlutaMAX (Gibco) at 37° C. with 5% CO2. The cells were infected overnight with filtered retroviral medium containing four μg per ml of polybrene (Sigma-Aldrich) with or without 0.4, 2, or 10 μM per liter of all-trans retinoic acid (ATRA) (Sigma-Aldrich), and the viral medium was replaced with DMEM/low glucose (HyClone) supplemented with 5% FBS, Anti-Anti, MEM NEAA, and GlutaMAX with or without ATRA for 24 hrs. The viral infection was repeated twice, and the cells were maintained in DMEM/low glucose containing 5% FBS with or without ATRA for the duration of culture.\n[…] reverse transcriptase polymerase chain reaction (qRT-PCR). Total ribonucleic acid (RNA) was isolated from cells using the RNeasy Mini Kit (QIAGEN, Hilden, GE) or TRIsure (Bioline, Memphis, TN), according to the manufacturer's instructions. The extracted RNA was reverse transcribed with TaqMan Reverse Transcription Reagents (Applied Biosystems, Foster City, CA), according to the manufacturer's instructions. The synthesized cDNA was amplified with PowerUP SYBR Green Master Mix (Thermo Fisher Scientific, Waltham, MA), according to the manufacturer's instructions, and was subject to qRT-PCR with human or mouse specific primers, as shown in Table 1. Quantitative assessment of RNA levels was performed using a QuantStudio 3 96-well 0.2-ml real-time PCR system (Applied Biosystems). The relative messenger RNA (mRNA) expression was normalized to GAPDH.", "key": {"[1]": {"details": "ATRA-treated vs untreated HDFs, four days"}}, "data": [{"smiles": "CC1=C(/C=C/C(C)=C/C=C/C(C)=C/C(=O)O)C(C)(C)CCC1", "note": "[ATRA, (2E,4E,6E,8E)-3,7-dimethyl-9-(2,6,6-trimethylcyclohexen-1-yl) nona-2,4,6,8-tetraenoic acid]", "values": [{"measurement": "expression of S100A4", "setting": "[1]", "value": "substantially reduced"}, {"measurement": "fold increase of SMC gene expression, CALD1", "setting": "[1]", "value": 1.1, "unit": "fold"}, {"measurement": "fold increase of SMC gene expression, MYH11", "setting": "[1]", "value": 6.1, "unit": "fold"}, {"measurement": "mRNA expression of STRA6 and the SMC genes", "setting": "[1]", "value": "increased"}, {"measurement": "most effective concentration for induction of SMC gene expression", "setting": "among the tested ATRA concentrations, HDFs", "value": 2, "unit": "µM"}]}]}
